# Test results from patent US20240317762A1, “PHTHALAZINONE-BASED PARP-1 INHIBITORS” (Oregon Health & Science University, priority 2021, published 2024).
# Columns and labels:
# HEK 293T cells = experiment: cell proliferation (MTT) assay; format: cell-based, human; conditions: MTT, 72 h
# Protocol: HEK 293T or HEK 293 PARP-1 KO cells were seeded in a 96 well plate at 1000-2000 cells per well. Following an overnight incubation, MTT reagent, 3-(4,5-dimethylthiazol-2-yl)-2,5-diphenyltetrazolium bromide, or a dosage curve of indicated inhibitor was added to each well in quadruplicate. Following a 3-hour incubation at 37° C., wells containing MTT reagent, were aspirated and lysed with 100 μl DMSO. These wells acting as a no growth control were collected, saved @ −20° C., and replaced with 100 μl water. The plate was placed back into the incubator for a total of 72 hours of inhibitor treatment prior to MTT reagent being added for a final time. Following a 3 hour incubation with the reagent, wells were aspirated, and 100 μl DMSO were added to each well, while the no growth control sample was added back to the plate. Absorbance was read on a SpectraMaxi3 plate reader (Molecular Devices). Percent growth was calculated for analysis. Statistical significance was assigned using individual t-tests between conditions for each inhibitor dosage.
# Error bars represent SEM. […] Error bars represent SEM. […] Error bars represent SEM.
# PARP-1 [1] = target: T1, PARP-1 (Homo sapiens, UniProt P09874); experiment: PARP-1 auto-PARylation activity assay in cells; format: cell-based
# Protocol: Cells were washed with PBS, and lysed in RIPA buffer (50 mM Tris-HCl [pH 8.0], 150 mM NaCl, 0.1% SDS, 1% Triton X-100, 1× cOmplete™ protease inhibitors (Roche), and 1 μM Veliparib). […] Following quantification, 4× Laemmli sample buffer with 5% β-mercaptoethanol was added to 25-50 μg of protein.
# Membrane blots were blocked with 5% milk-PBST for 1 h at RT, followed by incubation with a rabbit pan-ADP-ribose binding reagent (Cell Signaling), a rabbit PARP-1 antibody (Bethyl Laboratories), or a mouse b-actin antibody (Santa Cruz Biotechnology) for 2 h at RT, followed by incubation with HRP-conjugated secondary antibodies. […] Blots were imaged for chemiluminescent signal on a ChemiDoc MP system (BioRad). Statistical significance was established through multiple unpaired t-tests with nonlinear regression fit analysis.
# FIGS. 5A-5F. […] An unlabeled competitor was added and the decrease in fluorescence polarization was measured across time. […] Error bars represent SEM. […] Error bars represent SEM. […] Cells were subsequently lysed using RIPA buffer, run out on SDS-PAGE, and probed for ADPr (Cell Signaling) and PARP-1 (Bethyl Laboratories). FIG. 5F) Quantification of western blot images. ADPr values are normalized to PARP-1 within each replicate and plotted as percentage compared to DMSO. Error bars indicate SEM (n=3).
# PARP-1 [2] = target: T1, PARP-1; experiment: PARP-1 PARylation after washout (off-rate analysis); format: cell-based; conditions: 300 nM, 30 minutes, no washout; read-out: inhibition of PARP-1-mediated PARylation activity prior to washout
# Protocol: For off-rate analysis, after 30 minute pre-treatment with indicated inhibitors, cells were washed once before incubating for 0, 3, 6, or 12 hours in fresh media. Following release times, cells were incubated with PDD 00017273 (10 μM) for 30 minutes before proceeding using the same western blot protocol detailed above. Statistical significance was established through multiple unpaired t-tests with nonlinear regression fit analysis.
# FIGS. 6A-6E. […] 0.1 μM ad-olaparib (chemical structure indicated in panel a) was added to the cells for 1 hour before undergoing a UV treatment for 5 minutes in cold PBS. Cells were lysed and sonicated in PBS (1% Triton X-100+1% SDS), clicked with TAMRA-azide and run out on SDS-PAGE. The gel was imaged for TAMRA and probed for PARP-1 (Bethyl Laboratories), and alpha-tubulin (X). FIGS. 6B, 6D) Quantification of western blot images. TAMRA or ADPr values are normalized to PARP-1 within each replicate and plotted as percentage compared to DMSO. Error bars indicate SEM (n=3-4). Statistical significance of off-rate calculated via multiple t-tests (p<0.05). […] Cells were subsequently treated with PARGi (10 μM) for 30 minutes, lysed using RIPA buffer, run out on SDS-PAGE, and probed for ADPr (Cell Signaling) and PARP-1 (Bethyl Laboratories). […] IC50 values were calculated using R statistical software.
# PARP-1 [3] = target: T1, PARP-1; experiment: in-cell competition labeling with ad-olaparib photoaffinity probe; format: cell-based
# Protocol: Photocrosslinking in intact cells. HEK293 CRL and PARP-1 KO cells were grown in DMEM for 2 days in a 60 mm dish for 2 days to reach 80-90% confluency. […] Cells were then washed once with PBS, covered with PBS and irradiated for 5 min in the RPR-100 Photochemical Reactor (Rayonet) equipped with 350 nm lamps at 4° C. Cells were lysed on ice in 1% SDS, 1% Triton X-100 and EDTA-free protease inhibitor cocktail (Roche) in PBS for 10 min and then probe sonicated to shear the nuclear DNA. Protein concentration was determined with Bio-Rad Protein assay. The lysate was diluted in PBS to a final Click reaction concentration of 2 mg/mL.
# Click Chemistry. Reaction was started by mixing 30 μL of each sample with 15 μL of PBS based 3× Click reaction mixture containing (final concentrations): 100 μM Tris[(1-benzyl-1H-1,2,3triazol-4-yl)methyl]amine (TBTA, Click Chemistry Tools), 1 mM CuSO4, 40 μM tetramethylrhodamine (TAMRA)-azide (Click Chemistry Tools), 1 mM Tris(2-carboxyethyl)phosphine hydrochloride (TCEP, Thermo Fisher) and 15% tert-Butyl alcohol, and let to procced for 1 h at RT while gently shaking. Reactions were stopped by adding 4× Laemmli sample buffer and boiling at 95° C. for 5 min.
# In gel fluorescence, western blotting and quantification. Samples were loaded to 8 or 10% SDS-polyacrylamide gels and run until the dye front left the gel. First, in-gel fluorescence was detected with ChemiDoc XRS+ (Biorad) using Rhodamine filter and then the proteins were transferred on nitrocellulose membrane, the membrane was blocked and probed for PARP-1 (1:3000) and alpha-tubulin (1:1000). Both antibodies were from cell signaling. Band intensities we quantified with ImageJ.
# (§1) FIGS. 6A-6E. […] 0.1 μM ad-olaparib (chemical structure indicated in panel a) was added to the cells for 1 hour before undergoing a UV treatment for 5 minutes in cold PBS. Cells were lysed and sonicated in PBS (1% Triton X-100+1% SDS), clicked with TAMRA-azide and run out on SDS-PAGE. The gel was imaged for TAMRA and probed for PARP-1 (Bethyl Laboratories), and alpha-tubulin (X). FIGS. 6B, 6D) Quantification of western blot images. TAMRA or ADPr values are normalized to PARP-1 within each replicate and plotted as percentage compared to DMSO. Error bars indicate SEM (n=3-4). Statistical significance of off-rate calculated via multiple t-tests (p<0.05). […] Cells were subsequently treated with PARGi (10 μM) for 30 minutes, lysed using RIPA buffer, run out on SDS-PAGE, and probed for ADPr (Cell Signaling) and PARP-1 (Bethyl Laboratories). FIG. 6E) ES-8 cells were treated with indicated concentration of inhibitors for 72 hours before measuring cell viability using the CellTiter-Glo kit (Promega G7573). IC50 values were calculated using R statistical software.
# [4] = system: Ewing sarcoma cell line EW-8; experiment: ES-8 viability screen (CellTiter-Glo); format: cell-based
# Protocol: Cell viability was measured using the CellTiter-Glo (Promega, G7573) assay and read using an Envision (PerkinElmer) plate reader. Compound source plates (96-well) were prepared by solubilizing each drug in DMSO to a maximum concentration of 1-50 mM, then arraying samples in 10-point dose-response with 3-fold dilution. Positive and negative controls (staurosporine at 10 mM and DMSO, respectively) were added to the source plates. Drug was transferred from the source plate to the assay plate using a Biomek FX (Beckman Coulter) liquid handler equipped with a pin tool which transferred ˜100 nl into a final volume of 100 μl, resulting in ˜1000-fold dilution. At least two biological replicates (assay performed on different day with same drug plate and independent cell preparation) were obtained for each drug. To analyze the assay, the relative light unit signal in each well was first log 2 transformed, then normalized by subtracting the mean of the negative controls wells on each plate.
# as §1
# PARP-1 [5] = target: T1, PARP-1; experiment: fluorescence polarization DNA binding affinity assay; conditions: 5 μM inhibitor; compared to DMSO control
# Excerpt: The full-length WT PARP-1 protein used in these assays was purified as described previously (30).
# PARP-1 [6] = target: T1, PARP-1; experiment: in vitro PARP-1 auto-PARylation assay (SRPK2 plate assay); format: biochemical; parameters: The full-length WT PARP-1 protein used in these assays; made in house
# Protocol: IC50 SRPK2 Plate Assays were performed as previously described (21). Log(inhibitor) versus response curves were fit using non-linear regression with variable slope. Mean IC50 values for each compound were derived from a minimum of three separate replicates.
# T1 sequence (P09874 whole entry): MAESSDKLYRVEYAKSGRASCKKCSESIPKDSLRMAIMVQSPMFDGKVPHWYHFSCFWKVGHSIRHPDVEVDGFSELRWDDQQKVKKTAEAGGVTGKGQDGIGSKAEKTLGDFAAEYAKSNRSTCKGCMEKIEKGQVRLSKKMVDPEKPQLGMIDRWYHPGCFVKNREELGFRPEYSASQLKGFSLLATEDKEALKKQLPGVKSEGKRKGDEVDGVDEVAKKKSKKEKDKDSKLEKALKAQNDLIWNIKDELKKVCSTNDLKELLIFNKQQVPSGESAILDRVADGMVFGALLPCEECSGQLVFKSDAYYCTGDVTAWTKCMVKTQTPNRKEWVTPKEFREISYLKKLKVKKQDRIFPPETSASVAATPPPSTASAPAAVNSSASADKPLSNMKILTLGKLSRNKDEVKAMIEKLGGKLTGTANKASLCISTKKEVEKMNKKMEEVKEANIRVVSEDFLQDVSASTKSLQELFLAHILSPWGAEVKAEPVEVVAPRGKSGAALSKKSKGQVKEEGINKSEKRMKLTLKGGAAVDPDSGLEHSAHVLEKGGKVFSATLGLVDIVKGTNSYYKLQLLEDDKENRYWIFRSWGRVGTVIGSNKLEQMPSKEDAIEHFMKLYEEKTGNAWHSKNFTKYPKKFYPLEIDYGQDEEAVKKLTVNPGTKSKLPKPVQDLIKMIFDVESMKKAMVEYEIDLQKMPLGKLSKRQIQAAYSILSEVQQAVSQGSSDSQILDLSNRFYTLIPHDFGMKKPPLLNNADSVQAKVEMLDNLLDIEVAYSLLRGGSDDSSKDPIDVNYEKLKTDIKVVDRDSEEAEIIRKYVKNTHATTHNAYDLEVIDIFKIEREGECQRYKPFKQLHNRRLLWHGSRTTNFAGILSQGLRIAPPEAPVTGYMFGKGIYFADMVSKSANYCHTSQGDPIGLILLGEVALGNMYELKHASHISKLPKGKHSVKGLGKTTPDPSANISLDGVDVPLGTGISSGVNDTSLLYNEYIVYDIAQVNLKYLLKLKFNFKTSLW
smiles,measurement,setting,value
"C[C@H]1Cn2c(nnc2C(C)(F)F)CN1C(=O)c1cc(Cc2n[nH]c(=O)c3ccccc23)ccc1F [Pip6, (S)-4-(3-(3-(1,1-difluoroethyl)-6-methyl-5,6,7,8-tetrahydro-[1,2,4]triazolo[4,3-a]pyrazine-7-carbonyl)-4-fluorobenzyl)phthalazin-1(2H)-one]",EC50,"HEK 293T cells; Homo sapiens, HEK-293T, read-out: EC50 cell growth",0.94 nM
same,potency in inhibiting cell growth compared with AZ0108,HEK 293T cells,substantially more potent than AZ0108
same,fold more potent than AZ0108 in inhibiting PARP-1 PARylation in HEK 293 cells,PARP-1 [1],~20 fold
same,EC50,"PARP-1 [1]; 30 min inhibitor, then PARG inhibitor PDD00017273, read-out: EC50 inhibiting PARP-1 PARylation in HEK 293 cells",2.3 nM
same,IC50,"PARP-1 [1]; FIG. 5F, nonlinear regression, read-out: IC50 of dose curves, quantification of western blot (ADPr normalized to PARP-1)",2.26 nM
same,inhibition at 0.3 µM,PARP-1 [2],> 90%
same,labeling of PARP-1 by ad-olaparib after pre-treatment,"PARP-1 [3]; 10 μM inhibitor, 0.1 μM ad-olaparib",substantially blocked
same,residence time on PARP-1 compared to AZ0108,PARP-1 [3]; in cells and in vitro,longer residence time
same,recovery of labeling of PARP-1 by ad-olaparib after washout,PARP-1 [3]; washout (3 h),not recovered
same,fold more cytotoxic than AZ0108 in Ewing sarcoma cells,[4],~80 fold
same,Fold Difference to Pip6,[4]; ratio of EC50 values,1
same,EC50,"[4]; viability, 72 h",0.24 nM
same,EC50 (nM),"[4]; viability, 72 h",sub-nanomolar
same,effect on the affinity of PARP-1 for nicked DNA,PARP-1 [5],more pronounced effect on DNA binding than Pip5
same,potency against PARP-1 auto-PARylation compared with AZ0108,PARP-1 [6],equipotent
